Test results from patent US12096773B2, “Herbicidal composition” (ISHIHARA SANGYO KAISHA, LTD., priority 2019, dated 2024).

What was measured:
Assay type in all cases: in vivo
[1] = tested on: common ragweed (Ambrosia elatior L.); assay: Example 6 pot test, foliar treatment, common ragweed
Description: (§1) Upland field soil was put into a 1/1,000,000 hectare pot, and seeds of common ragweed (Ambrosia elatior L.) and Kochia (Kochia scoparia L.) were sown.

[2] = tested on: Kochia (Kochia scoparia L.); assay: Example 9 pot test, foliar treatment, Kochia
Description: (§2) Upland field soil was put into a 1/1,000,000 hectare pot, and seeds of redroot pigweed (Amaranthus retroflexus L.), Kochia (Kochia scoparia L.) and Chenopodium album L. var. centrorubrum Makino were sown.

[3] = tested on: horseweed (Conyza canadensis(L.) Cron.); assay: Example 1 pot test, foliar treatment of horseweed, visual growth inhibition; settings: 21st day after foliar treatment
Description: (§3) Upland field soil was put into a 1/1,000,000 hectare pot, and seeds of horseweed (Conyza canadensis(L.) Cron.) were sown.

[4] = tested on: Kochia (Kochia scoparia L.); assay: Example 6 pot test, foliar treatment, Kochia
Description: as §1

[5] = tested on: horseweed (Conyza canadensis(L.) Cron.); assay: Example 2 pot test, foliar treatment of horseweed, visual growth inhibition; settings: 19th day after foliar treatment
Description: as §3

[6] = tested on: crabgrass (Digitaria sanguinalis L.); assay: Example 8 pot test, foliar treatment, crabgrass
Description: (§4) Upland field soil was put into a 1/1,000,000 hectare pot, and seeds of goosegrass (Eleusine indica L.), barnyardgrass (Echinochloa crus-galli L.), giant foxtail (Setaria faberi Herrm.) and crabgrass (Digitaria sanguinalis L.) were sown.

[7] = tested on: black nightshade (Solanum nigrum L.); assay: Example 4 pot test, foliar treatment, black nightshade
Description: (§5) Upland field soil was put into a 1/1,000,000 hectare pot, and seeds of black nightshade (Solanum nigrum L.), wild oat (Avena fatua L.) and dandelion (Taraxacum officinale) were sown.

[8] = tested on: redroot pigweed (Amaranthus retroflexus L.); assay: Example 9 pot test, foliar treatment, redroot pigweed
Description: as §2

[9] = tested on: Chenopodium album L. var. centrorubrum Makino; assay: Example 9 pot test, foliar treatment, Chenopodium album var. centrorubrum
Description: as §2

[10] = tested on: barnyardgrass (Echinochloa crus-galli L.); assay: Example 8 pot test, foliar treatment, barnyardgrass
Description: as §4

[11] = tested on: giant foxtail (Setaria faberi Herrm.); assay: Example 8 pot test, foliar treatment, giant foxtail
Description: as §4

[12] = tested on: horseweed (Conyza canadensis(L.) Cron.); assay: Example 3 pot test, foliar treatment of horseweed, growth inhibition over time; settings: for growth inhibition effect (in words): used alone, 19th day after the foliar treatment
Description: as §3

[13] = tested on: dandelion (Taraxacum officinale); assay: Example 4 pot test, foliar treatment, dandelion
Description: as §5

[14] = tested on: yellow nutsedge (Cyperus esculentus L.); assay: Example 5 pot test, foliar treatment, yellow nutsedge; settings: 22nd day after foliar treatment
Description: Upland field soil was put into a 1/1,000,000 hectare pot, and tubers of yellow nutsedge (Cyperus esculentus L.) were embedded.

[15] = tested on: wild oat (Avena fatua L.); assay: Example 4 pot test, foliar treatment, wild oat
Description: as §5

[16] = tested on: goosegrass (Eleusine indica L.); assay: Example 8 pot test, foliar treatment, goosegrass
Description: as §4

`COC(=O)CCNC(=O)C(C)Sc1cc(-n2c(=O)cc(C(F)(F)F)n(C)c2=O)c(F)cc1Cl` (stereo not drawn) [Tiafenacil, tiafenacil] was tested, and the “Growth inhibition rate (%) Common Ragweed (6th day)” value ([1]; dose 25 g/ha) was 50%, the “Growth inhibition rate (%) Common Ragweed (6th day)” value ([1]; dose 50 g/ha) was 50% and the “Growth inhibition rate (%) Kochia (14th day)” value ([2]; dose 1 g/ha) was 13%. The “Growth inhibition rate (%) Kochia (14th day)” value ([2]; dose 2 g/ha) was 23%, the “Growth inhibition rate (%)” value ([3]; dose 25 g/ha) was 33% and the “Growth inhibition rate (%)” value ([3]; dose 50 g/ha) was 40%. For the same compound, the “Growth inhibition rate (%) Kochia (10th day)” value ([4]; dose 25 g/ha) was 30%, the “Growth inhibition rate (%) Kochia (10th day)” value ([4]; dose 50 g/ha) was 30% and the “Growth inhibition rate (%)” value ([5]; dose 25 g/ha) was 23%. The “Growth inhibition rate (%) Crabgrass (18th day)” value ([6]; dose 2.5 g/ha) was 30%, the “Growth inhibition rate (%) Black nightshade (27th day)” value ([7]; dose 25 g/ha) was 58% and the “Growth inhibition rate (%) Red root pigweed (8th day)” value ([8]; dose 1 g/ha) was 50%. The “Growth inhibition rate (%) Chenopodium album L. var. centrorubrum Makino (14th day)” value ([9]; dose 1 g/ha) was 3%, the “Growth inhibition rate (%) Chenopodium album L. var. centrorubrum Makino (14th day)” value ([9]; dose 2 g/ha) was 30% and the “Growth inhibition rate (%) Barnyardgrass (11th day)” value ([10]; dose 2.5 g/ha) was 30%. For the same compound, the “Growth inhibition rate (%) Giant foxtail (7th day)” value ([11]; dose 2.5 g/ha) was 80%, the “Growth inhibition rate (%) 19th day” value ([12]; dose 50 g/ha) was 23% and the “Growth inhibition rate (%) 27th day” value ([12]; dose 50 g/ha) was 20%. The “Growth inhibition rate (%) 42nd day” value ([12]; dose 50 g/ha) was 20%, the “Growth inhibition rate (%) 19th day” value ([12]; dose 100 g/ha) was 50% and the “Growth inhibition rate (%) 27th day” value ([12]; dose 100 g/ha) was 43%. The “Growth inhibition rate (%) 42nd day” value ([12]; dose 100 g/ha) was 30%, the “growth inhibition effect (in words)” value [12] was “no sufficient growth inhibition effect” and the “Growth inhibition rate (%) Dandelion (10th day)” value ([13]; dose 25 g/ha) was 30%. The “Growth inhibition rate (%) Yellow nutsedge” value ([14]; dose 50 g/ha) was 35%.
For `CCn1ncc(C(=O)c2ccc(S(C)(=O)=O)c(OCCOC)c2C)c1OC(C)OC(=O)OC` (stereo not drawn) [Tolpyralate, tolpyralate], the “Growth inhibition rate (%) Common Ragweed (6th day)” value ([1]; dose 15 g/ha) was 15%, the “Growth inhibition rate (%) Common Ragweed (6th day)” value ([1]; dose 30 g/ha) was 15% and the “Growth inhibition rate (%) Common Ragweed (6th day)” value ([1]; dose 50 g/ha) was 10%. For the same compound, the “Growth inhibition rate (%) Kochia (14th day)” value ([2]; dose 1.5 g/ha) was 10%, the “Growth inhibition rate (%) Kochia (14th day)” value ([2]; dose 3 g/ha) was 23% and the “Growth inhibition rate (%) Kochia (14th day)” value ([2]; dose 5 g/ha) was 25%. For the same compound, the “Growth inhibition rate (%)” value ([3]; dose 15 g/ha) was 33%, the “Growth inhibition rate (%)” value ([3]; dose 30 g/ha) was 30% and the “Growth inhibition rate (%)” value ([3]; dose 50 g/ha) was 30%. The “Growth inhibition rate (%) Kochia (10th day)” value ([4]; dose 15 g/ha) was 15%, the “Growth inhibition rate (%) Kochia (10th day)” value ([4]; dose 30 g/ha) was 20% and the “Growth inhibition rate (%) Kochia (10th day)” value ([4]; dose 50 g/ha) was 15%. For the same compound, the “Growth inhibition rate (%)” value ([5]; dose 125 g/ha) was 33%, the “Growth inhibition rate (%)” value ([5]; dose 250 g/ha) was 37% and the “Growth inhibition rate (%) Crabgrass (18th day)” value ([6]; dose 1.5 g/ha) was 30%. For the same compound, the “Growth inhibition rate (%) Crabgrass (18th day)” value ([6]; dose 3 g/ha) was 40%, the “Growth inhibition rate (%) Crabgrass (18th day)” value ([6]; dose 5 g/ha) was 50% and the “Growth inhibition rate (%) Black nightshade (27th day)” value ([7]; dose 15 g/ha) was 72%. For the same compound, the “Growth inhibition rate (%) Black nightshade (27th day)” value ([7]; dose 30 g/ha) was 79%, the “Growth inhibition rate (%) Black nightshade (27th day)” value ([7]; dose 50 g/ha) was 78% and the “Growth inhibition rate (%) Wild oat (21st day)” value ([15]; dose 15 g/ha) was 10%. For the same compound, the “Growth inhibition rate (%) Wild oat (21st day)” value ([15]; dose 30 g/ha) was 28%, the “Growth inhibition rate (%) Wild oat (21st day)” value ([15]; dose 50 g/ha) was 30% and the “Growth inhibition rate (%) Red root pigweed (8th day)” value ([8]; dose 1.5 g/ha) was 23%. The “Growth inhibition rate (%) Red root pigweed (8th day)” value ([8]; dose 3 g/ha) was 25%, the “Growth inhibition rate (%) Red root pigweed (8th day)” value ([8]; dose 5 g/ha) was 30% and the “Growth inhibition rate (%) Chenopodium album L. var. centrorubrum Makino (14th day)” value ([9]; dose 1.5 g/ha) was 10%. For the same compound, the “Growth inhibition rate (%) Chenopodium album L. var. centrorubrum Makino (14th day)” value ([9]; dose 3 g/ha) was 10%, the “Growth inhibition rate (%) Chenopodium album L. var. centrorubrum Makino (14th day)” value ([9]; dose 5 g/ha) was 15% and the “Growth inhibition rate (%) Goosegrass (5th day)” value ([16]; dose 1.5 g/ha) was 15%. For the same compound, the “Growth inhibition rate (%) Goosegrass (5th day)” value ([16]; dose 3 g/ha) was 15%, the “Growth inhibition rate (%) Goosegrass (5th day)” value ([16]; dose 5 g/ha) was 23% and the “Growth inhibition rate (%) Barnyardgrass (11th day)” value ([10]; dose 1.5 g/ha) was 45%. The “Growth inhibition rate (%) Barnyardgrass (11th day)” value ([10]; dose 3 g/ha) was 45%, the “Growth inhibition rate (%) Barnyardgrass (11th day)” value ([10]; dose 5 g/ha) was 40% and the “Growth inhibition rate (%) Giant foxtail (7th day)” value ([11]; dose 1.5 g/ha) was 10%. For the same compound, the “Growth inhibition rate (%) Giant foxtail (7th day)” value ([11]; dose 3 g/ha) was 30%, the “Growth inhibition rate (%) Giant foxtail (7th day)” value ([11]; dose 5 g/ha) was 40% and the “Growth inhibition rate (%) 19th day” value ([12]; dose 5 g/ha) was 20%. For the same compound, the “Growth inhibition rate (%) 27th day” value ([12]; dose 5 g/ha) was 47%, the “Growth inhibition rate (%) 42nd day” value ([12]; dose 5 g/ha) was 23% and the “Growth inhibition rate (%) 19th day” value ([12]; dose 10 g/ha) was 17%. The “Growth inhibition rate (%) 27th day” value ([12]; dose 10 g/ha) was 37%, the “Growth inhibition rate (%) 42nd day” value ([12]; dose 10 g/ha) was 47% and the “growth inhibition effect (in words)” value [12] was “no sufficient growth inhibition effect”. The “Growth inhibition rate (%) Dandelion (10th day)” value ([13]; dose 15 g/ha) was 30%, the “Growth inhibition rate (%) Dandelion (10th day)” value ([13]; dose 30 g/ha) was 30% and the “Growth inhibition rate (%) Dandelion (10th day)” value ([13]; dose 50 g/ha) was 30%. For the same compound, the “Growth inhibition rate (%) Yellow nutsedge” value ([14]; dose 15 g/ha) was 40% and the “Growth inhibition rate (%) Yellow nutsedge” value ([14]; dose 30 g/ha) was 50%.
